Consider four compounds from patent US5750826A, “Bradykinin B2 receptor modified transgenic non-human animals” (Merck & Co., Inc., priority 1996, dated 1998).

Assay [1] concerns the target T1, mouse B2 bradykinin receptor (Mus musculus, UniProt P32299).
T1 construct: The PCR product begins 99 bp upstream of the initiator methionine codon and ends 49 bp downstream of the stop codon; expressed in transfected cells; host or cells: COS-7 (transient), pcDNAI-Neo
T1 sequence (P32299 1-366 isoform P32299-2): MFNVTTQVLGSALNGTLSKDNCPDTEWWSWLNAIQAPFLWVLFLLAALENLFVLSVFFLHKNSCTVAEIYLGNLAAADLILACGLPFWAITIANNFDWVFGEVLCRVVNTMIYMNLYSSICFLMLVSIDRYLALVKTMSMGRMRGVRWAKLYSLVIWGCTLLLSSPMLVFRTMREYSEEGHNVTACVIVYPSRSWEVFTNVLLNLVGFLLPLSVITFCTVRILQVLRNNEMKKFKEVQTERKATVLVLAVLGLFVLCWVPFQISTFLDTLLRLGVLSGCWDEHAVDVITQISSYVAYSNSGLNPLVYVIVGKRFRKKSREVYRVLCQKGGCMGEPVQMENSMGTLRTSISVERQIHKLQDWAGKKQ
The assay can be described thus: Competition binding using 100 pM [3H]BK at the expressed mouse B2 bradykinin receptor. The following applies: expressed mouse B2 receptor, 100 pM [3H]BK. As to the method: (§1) Binding assays were then performed to determine receptor antagonist or agonist interaction. The assays utilized in the instant invention follow the method of Manning et al., J. Pharmacol. Exp. Ther., 237, 504-512 (1986). [^3 H]BK at various concentrations was incubated for 60 minutes at 25° C. with approximately 50ug membrane protein from COS-7 cells in a volume of 1 ml. The assay was terminated by filtration over Whatman GF/B filters presoaked for 3 hours in 0.1 % polyethyleneimine using a BRANDEL M-24 CELL […] (BRANDEL, Gaithersburg, Md.). The tubes were rinsed two times with 4 ml ice-cold […] and the filter bound radioactivity was quantitated by liquid scintillation counting. Nonspecific binding was determined by performing incubation in the presence of 1 uM BK and generally represents less than 5% of the total binding at 100pM ^3 H]BK. Competition binding experiments, in the presence of 100pM[^3 H]BK, were performed with varying concentrations of the test compound(s). The competition and saturation experiments were analyzed using the EBDA program of McPherson. See McPherson, G.A. J Pharmacol. Methods 14, 213-218 (1985).
To verify the pharmacological properties of the mouse bradykinin B2 receptor the coding sequence of the mouse B2 bradykinin receptor was isolated by PCR (Perkin Elmer/Cetus) using a Techne thermocycler with the template being the EcoR I by Hind III genomic fragment in pSP72 and the 5' primer 5'-[…]-3' (SEQ.ID.NO.:8) and the 3' primer 5'- […]-3' (SEQ.ID.NO.:9). The PCR product was subcloned into the Hind III and Xba I sites of the eukaryotic expression vector pcDNAI-Neo (Invitrogen). The PCR product begins 99 bp upstream of the initiator methionine codon and ends 49 bp downstream of the stop codon. The DNA sequence analysis using Sequenase (US Biochemical) of the subcloned PCR product confirmed that the sequence was identical to that in the original genomic fragment.

Assay [2] relates to rat vas deferens. The following applies: cited from earlier work.
The subject of assay [3] is B1 receptor. The following applies: cited from earlier work.
The test system of assay [4] is B2 receptor. The note with it: cited from earlier work.
The target of assay [5] is T2, human B2 bradykinin receptor (Homo sapiens, UniProt P30411).
T2 construct: placing the entire B2 clone under the control of the CMV promoter; expressed in transfected cells
T2 sequence (P30411 1-364 isoform P30411-2): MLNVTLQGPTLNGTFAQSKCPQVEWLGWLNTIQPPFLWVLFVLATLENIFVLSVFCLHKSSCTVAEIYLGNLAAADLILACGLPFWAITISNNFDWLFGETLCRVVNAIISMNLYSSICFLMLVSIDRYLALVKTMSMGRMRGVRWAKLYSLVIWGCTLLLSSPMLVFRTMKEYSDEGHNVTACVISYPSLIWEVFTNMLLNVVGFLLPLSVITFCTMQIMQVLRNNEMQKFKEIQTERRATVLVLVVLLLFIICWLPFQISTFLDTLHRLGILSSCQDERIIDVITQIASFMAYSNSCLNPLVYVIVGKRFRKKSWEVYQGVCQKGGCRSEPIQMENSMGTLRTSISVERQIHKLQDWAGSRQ
The assay can be described thus: Competition binding against 100 pM [3H]BK at the cloned human B2 receptor (COS-7). As to the method:
(§2) In order to enable expression of the cDNA that encodes for the B2 bradykinin receptor, COS-7 cells were transfected using LIPOFECTIN (BRL, Gaithersburg, Md.) with 50ug/10^7 cells of the B2 receptor cDNA subcloned into the eukaryotic expression vector pcDNA I-Neo (Invitrogen). Cells were then harvested after 72 hours and the membranes containing the expressed receptor protein were prepared by scraping the cells in phosphate buffered saline solution and centrifuging for ten minutes at 500× g. The cell pellet was then resuspended and homogenized with a Polytron in 20 mM N-tris(hydroxymethyl)methyl-2-aminoethane sulfonic acid (TES,pH 6.8 at room temperature) buffer containing 1 mM 1, 10 phenanthroline. The homogenate was then centrifuged for ten minutes at 500 × g. The final membrane pellet was resuspended in assay buffer (TES plus 0.1% protease free bovine serum albumin, 5 uM MK-422 (enalaprilat; Gross et al., 1981) and 140 ug/ml bacitracin using a motor-driven teflon-glass tissue homogenizer. Protein determination was performed by the method of Bradford using bovine IgG as the standard. See Bradford, M.A. Anal. Biochem. 72, 248-254 (1976).
Binding assays were then performed to determine receptor antagonist or agonist interaction. The assays utilized in the instant invention follow the method of Manning et al., J. Pharmacol. Exp. Ther., 237, 504-512 (1986). […] (BRANDEL, Gaithersburg, Md.). The tubes were rinsed two times with 4 ml ice-cold […] and the filter bound radioactivity was quantitated by liquid scintillation counting. […] The competition and saturation experiments were analyzed using the EBDA program of McPherson. See McPherson, G.A. J Pharmacol. Methods 14, 213-218 (1985).

Assay [6] deals with murine AB2.1 ES cells, pBS-KO-1 transformants. Nature of the assay: FIAU counter-selection of pBS-KO-1 ES cell transformants. The following applies: FIAU 0.2 μM. Format: cell-based, mouse. As for the experimental part: Targeted alteration of the bradykinin B2 gene in murine ES cells The gene replacement vector used in the B2 gene disruption experiments was the pBS-KO-1 vector. When this vector recombined with the wild-type B2 allele to generate the B2 knock-out (B2 KO), the entire coding sequence for the B2 receptor was deleted (FIG. 2). The mouse embryonic stem cell line AB2.1 was electroporated with Not I -linearized pBS-KO-1 in multiple experiments. All AB2.1 ES cells were cultured on SNL feeder cells as described (Robertson, in Teratocarcinomas and embryonic stem cells, IRL Press, pp. 71-112 (1987)). Electroporations were performed with 4×10^6 ES cells and 25 μg linearized pBS-KO-l in 0.8 ml electroporation buffer (Specialty Media, Inc.) at 300v, 250 μF using a Bio-Rad Gene Pulser. ES cell transformants were selected with the antibiotic geneticin (Gibco G418: 200 μg/ml active G418), and some transformants were counter-selected with FIAU (Bristol Myers Squibb; 0.2 μM) for enhancement of homologous recombinants. Murine leukemia inhibitory factor (LIF; ESGRO, Gibco BRL, Inc.) was used at 1000 U/ml. […] G418-and FIAU-resistant ES clones were isolated by picking and growing individual colonies, and their genomic DNAs were prepared from AB2.1 5 KO-I-transformants as described (Laird et al., Nucleic Acids Res. 19:4293 (1991).

Assay [7] relates to CPAE cells (bovine pulmonary artery endothelial cells). The note with it: cited from earlier work.
The subject of assay [8] is mock transfected COS-7 cells. The assay can be described thus: Binding of BK to membranes of mock transfected COS-7 cells. The note with it: membranes from mock transfected COS-7 cells. As for the experimental part: as §2, with “The final membrane pellet was resuspended in assay buffer (TES plus 0.1% protease free bovine serum albumin, 5 uM MK-422 (enalaprilat; Gross et al., 1981) and 140 ug/ml bacitracin using a motor-driven teflon-glass tissue homogenizer. Protein determination was performed by the method of Bradford using bovine IgG as the standard. See Bradford, M.A. Anal. Biochem. 72, 248-254 (1976).” left out
Binding assays were then performed to determine receptor antagonist or agonist interaction. […] The tubes were rinsed two times with 4 ml ice-cold […] and the filter bound radioactivity was quantitated by liquid scintillation counting. […] The competition and saturation experiments were analyzed using the EBDA program of McPherson. […]

The test system of assay [9] is Swiss 3T3 fibroblasts. The note with it: cited from earlier work.
In assay [10] the test system is guinea pig ileum mucosa. The note with it: nanomolar concentrations, serosal surface; cited from earlier work.
Assay [11] concerns the target T1, mouse B2 bradykinin receptor. The assay can be described thus: Saturation binding to whole COS cells transiently expressing the mouse B2 receptor. The following applies: single high affinity site, read-out: KD for [3H]BK. As for the experimental part:
as §1, with “[^3 H]BK at various concentrations was incubated for 60 minutes at 25° C. with approximately 50ug membrane protein from COS-7 cells in a volume of 1 ml.” left out
To verify the pharmacological properties of the mouse bradykinin B2 receptor the coding sequence of the mouse B2 bradykinin receptor was isolated by PCR (Perkin Elmer/Cetus) using a Techne thermocycler with the template being the EcoR I by Hind III genomic fragment in pSP72 and the 5' primer 5'-[…]-3' (SEQ.ID.NO.:8) and the 3' primer 5'- […]-3' (SEQ.ID.NO.:9). […]

The IC50 is the concentration that gives 50% inhibition. As usually defined, the inhibition is the drop in the measured response relative to a control, in per cent. Read a low inhibition as little suppression. The term Kd denotes the concentration at which binding is half-saturated.

Where no end group is shown, it is not given here.

Turning to `N=C(N)NCCC[C@H](N)C(=O)N1CCC[C@H]1C(=O)N1CCC[C@H]1C(=O)NCC(=O)N[C@@H](Cc1ccccc1)C(=O)N[C@@H](CO)C(=O)N1CCC[C@H]1C(=O)N[C@@H](Cc1ccccc1)C(=O)O` [Des-Arg^9 BK], the affinity result in [1] is “very low affinity”. In assay [1] (read-out: IC50), the IC50 was found to be 6 µM. The “pre- or postsynaptic BK like responses” value in assay [2] (rat vas deferens) is “inactive”. The “potency as B1 receptor agonist relative to BK” value in assay [3] is given as “higher potency than BK”. In addition, the “activity at B2 receptors” value in [4] is “inactive at B2 receptors”. In addition, in [5] (10 uM, human B2 receptor), the inhibition at 10 µM amounted to 18%.

As to `O=c1[nH]c(=O)n([C@@H]2O[C@H](CO)[C@@H](O)[C@@H]2F)cc1I` [FIAU, 1-(2-deoxy 2-fluoro-B-D-arabinofluranosyl)-5-iodouracil], the “fewer background pBS-KO-1 transformants” value in [6] is “about eleven”.

As for RPPGFSPFR [BK], the “activity of phosphatidylcholine-specific PLC” value in assay [7] is on record as “stimulates”. Moreover, the “BK specific binding sites” value in [8] was “did not contain any detectable BK specific binding sites”. Moreover, the “phospholipase C mediated InsP formation and PGE-2 synthesis” value in assay [9] is listed as “stimulated”. For the same compound, the affinity result in assay [1] is “high (subnanomolar) affinity”. Also, in assay [10], the “transepithelial potential difference (p.d.) and short circuit current (ISC)” value was “rapidly increased”. The “contraction of smooth muscle / muscle tone” value in assay [2] (musculotropic/postjunctional action) is reported as “contracted the smooth muscle generating an increased muscle tone”. The “magnitude of the muscular response to electrically driven twitches” value in [2] (neurogenic/presynaptic effect) is reported as “potentiated”. In addition, the “specificity of binding (rank order)” value in assay [5] is given as “BK>lys-BK>met-lys-BK”.

Consider “[^3 H]BK: radioligand [3H]BK used in binding assays (RPPGFSPFR; also: tritium label; UniProt P01042 381-389, looked up)”, for which, in [11], the dissociation constant Kd was 0.0002 ± 3e-05 µM.
